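Growth conditions: 96-well plates. Treatment: test compound, 48 hours, 5 concentrations. Analysis: linear interpolation between bracketing concentrations; unreached endpoints set to highest concentration. Abbreviation: GI50, concentration required for 50% inhibition of growth.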 The source made the active and inactive calls. Rule as the data show it: active = GI50 up to about 1.1 µM and inactive = higher.
What was measured:
Assay in all cases: inhibition of tumour cell growth, NCI panel, 48 h
UACC-62 = system: UACC-62
ACHN = system: ACHN
SK-MEL-28 = system: SK-MEL-28
A549 = system: A549
SW-620 = system: SW-620
NCI-H522 = system: NCI-H522
COLO 205 = system: COLO 205
LOX IMVI = system: LOX IMVI
SNB-19 = system: SNB-19
M14 = system: M14
HOP-62 = system: HOP-62
NCI-H23 = system: NCI-H23
SR = system: SR
SF-295 = system: SF-295
Malme-3M = system: Malme-3M
OVCAR-4 = system: OVCAR-4
HOP-92 = system: HOP-92
SK-OV-3 = system: SK-OV-3
MDA-MB-231 = system: MDA-MB-231
NCI/ADR-RES = system: NCI/ADR-RES

Compound	GI50 (UACC-62)	GI50 (ACHN)	GI50 (SK-MEL-28)	GI50 (A549)	GI50 (SW-620)	GI50 (NCI-H522)	GI50 (COLO 205)	GI50 (LOX IMVI)	GI50 (SNB-19)	GI50 (M14)	GI50 (HOP-62)	GI50 (NCI-H23)	GI50 (SR)	GI50 (SF-295)	GI50 (Malme-3M)	GI50 (OVCAR-4)	GI50 (HOP-92)	GI50 (SK-OV-3)	GI50 (MDA-MB-231)	GI50 (NCI/ADR-RES)
CCN1CCC(O)(c2ccc(C)cc2)C(C(=O)c2ccc(C)cc2)C1 (stereo not drawn)	> 42.6 µM (inactive)	17.5 µM (inactive)	23.9 µM (inactive)	> 75.9 µM (inactive)	16.8 µM (inactive)	1.94 µM (inactive)	23.6 µM (inactive)	26.2 µM (inactive)	> 80.7 µM (inactive)	36.7 µM (inactive)	> 100 µM (inactive)	> 40 µM (inactive)	23.9 µM (inactive)	> 100 µM (inactive)	19.5 µM (inactive)	21.5 µM (inactive)	19.7 µM (inactive)	> 100 µM (inactive)	–	–
O=C(Nc1ccccn1)/C(=C\C(=O)c1ccc(Cl)cc1)Nc1ccccc1	> 10 µM (inactive)	–	> 10 µM (inactive)	> 10 µM (inactive)	> 10 µM (inactive)	–	> 10 µM (inactive)	> 10 µM (inactive)	–	> 10 µM (inactive)	> 10 µM (inactive)	> 10 µM (inactive)	> 10 µM (inactive)	> 10 µM (inactive)	> 10 µM (inactive)	> 10 µM (inactive)	> 10 µM (inactive)	> 10 µM (inactive)	> 10 µM (inactive)	–
COc1ccc(/C=C/C(=O)c2sc(-n3nc(-c4ccccc4)cc3-c3ccccc3)nc2C)cc1	> 10 µM (inactive)	> 10 µM (inactive)	> 10 µM (inactive)	> 10 µM (inactive)	> 10 µM (inactive)	63.1 µM (inactive)	> 10 µM (inactive)	> 10 µM (inactive)	> 10 µM (inactive)	> 10 µM (inactive)	> 10 µM (inactive)	> 10 µM (inactive)	> 10 µM (inactive)	> 10 µM (inactive)	> 10 µM (inactive)	43.6 µM (inactive)	> 10 µM (inactive)	> 10 µM (inactive)	–	–
CCOC(=O)CSc1[nH]c(NC(=S)Nc2ccccc2)c(C(N)=O)c1C(N)=O	> 10 µM (inactive)	–	> 10 µM (inactive)	> 10 µM (inactive)	> 10 µM (inactive)	–	> 10 µM (inactive)	> 10 µM (inactive)	–	> 10 µM (inactive)	> 10 µM (inactive)	> 10 µM (inactive)	3.67 µM (inactive)	> 10 µM (inactive)	> 10 µM (inactive)	> 10 µM (inactive)	> 10 µM (inactive)	> 10 µM (inactive)	> 10 µM (inactive)	–
O=c1[nH]nc(-c2ccccc2)c2[nH]c3c4ccccc4ccc3c12	1.2 µM (inactive)	1.69 µM (inactive)	–	1.31 µM (inactive)	0.656 µM (active)	0.753 µM (active)	0.74 µM (active)	–	1.62 µM (inactive)	2.66 µM (inactive)	2.77 µM (inactive)	2.15 µM (inactive)	0.251 µM (active)	0.461 µM (active)	4.83 µM (inactive)	1.76 µM (inactive)	20.3 µM (inactive)	2.61 µM (inactive)	–	0.379 µM (active)
CCc1ccc(NC(=O)NC(=O)c2ccccc2[N+](=O)[O-])cc1Oc1ncc(Cl)cn1	< 0.0177 µM (active)	0.0386 µM (active)	0.37 µM (active)	0.0213 µM (active)	0.0168 µM (active)	0.0135 µM (active)	0.0304 µM (active)	0.0189 µM (active)	0.0495 µM (active)	0.0231 µM (active)	< 0.0154 µM (active)	< 0.0174 µM (active)	0.0247 µM (active)	< 0.0222 µM (active)	< 0.01 µM (active)	2.61 µM (inactive)	< 0.01 µM (active)	< 0.0164 µM (active)	0.0376 µM (active)	–
CN/C=C(/c1ccc(OC)cc1)C(O)c1ccc(OC)c(OC)c1 (stereo not drawn)	> 100 µM (inactive)	> 100 µM (inactive)	> 100 µM (inactive)	> 100 µM (inactive)	> 100 µM (inactive)	> 100 µM (inactive)	> 100 µM (inactive)	> 100 µM (inactive)	> 100 µM (inactive)	> 100 µM (inactive)	> 100 µM (inactive)	> 100 µM (inactive)	> 100 µM (inactive)	> 100 µM (inactive)	> 100 µM (inactive)	> 100 µM (inactive)	> 100 µM (inactive)	> 100 µM (inactive)	–	–
O=C(NCc1cccnc1)C1COc2cc(-c3cc(=O)c4ccccc4o3)ccc2O1 (stereo not drawn)	30.4 µM (inactive)	22.5 µM (inactive)	3.49 µM (inactive)	5.79 µM (inactive)	> 100 µM (inactive)	10.7 µM (inactive)	> 100 µM (inactive)	3.38 µM (inactive)	19.8 µM (inactive)	5.27 µM (inactive)	10.1 µM (inactive)	13.6 µM (inactive)	5.46 µM (inactive)	7.6 µM (inactive)	> 64.6 µM (inactive)	55.3 µM (inactive)	> 75.3 µM (inactive)	> 100 µM (inactive)	–	–
CC1(C)/C(=N\Nc2ccc([N+](=O)[O-])cc2[N+](=O)[O-])C2CCC1C2 (stereo not drawn)	> 100 µM (inactive)	54 µM (inactive)	> 100 µM (inactive)	> 100 µM (inactive)	> 100 µM (inactive)	> 100 µM (inactive)	> 100 µM (inactive)	> 100 µM (inactive)	> 100 µM (inactive)	> 100 µM (inactive)	74.5 µM (inactive)	> 100 µM (inactive)	> 100 µM (inactive)	15.2 µM (inactive)	> 100 µM (inactive)	84.5 µM (inactive)	93.8 µM (inactive)	27.7 µM (inactive)	–	> 100 µM (inactive)
O=[N+]([O-])c1ccccc1C1SCc2nc3ccccc3n21 (stereo not drawn)	54 µM (inactive)	92.5 µM (inactive)	> 100 µM (inactive)	52.4 µM (inactive)	> 100 µM (inactive)	> 100 µM (inactive)	–	> 100 µM (inactive)	> 100 µM (inactive)	–	92 µM (inactive)	54.1 µM (inactive)	85.3 µM (inactive)	59.2 µM (inactive)	22.1 µM (inactive)	> 100 µM (inactive)	48 µM (inactive)	> 100 µM (inactive)	–	–
NC1=C(C(=O)O)C(=O)C(Nc2c(O)cccc2C(=O)O)=CC1=O	60 µM (inactive)	> 100 µM (inactive)	0.942 µM (active)	> 100 µM (inactive)	> 100 µM (inactive)	> 100 µM (inactive)	> 100 µM (inactive)	> 100 µM (inactive)	> 100 µM (inactive)	45.4 µM (inactive)	> 100 µM (inactive)	> 100 µM (inactive)	> 100 µM (inactive)	43 µM (inactive)	40.1 µM (inactive)	> 100 µM (inactive)	> 100 µM (inactive)	> 100 µM (inactive)	–	–
O=C(O/N=C1/CCCC/C1=C\c1ccccc1)c1ccc(Cl)c(Cl)c1	17.1 µM (inactive)	15.5 µM (inactive)	18.3 µM (inactive)	17.5 µM (inactive)	18.7 µM (inactive)	18.4 µM (inactive)	28.2 µM (inactive)	20 µM (inactive)	69.7 µM (inactive)	> 100 µM (inactive)	52.5 µM (inactive)	19.2 µM (inactive)	8.2 µM (inactive)	31.8 µM (inactive)	0.443 µM (active)	20.7 µM (inactive)	26.8 µM (inactive)	> 100 µM (inactive)	–	–
Cn1c(NC(=O)NC23CC4CC(CC(C4)C2)C3)nc2ccccc21	40.1 µM (inactive)	27.5 µM (inactive)	96.4 µM (inactive)	> 100 µM (inactive)	> 100 µM (inactive)	78.7 µM (inactive)	> 100 µM (inactive)	> 100 µM (inactive)	95.1 µM (inactive)	47.8 µM (inactive)	30.5 µM (inactive)	> 100 µM (inactive)	> 100 µM (inactive)	12.6 µM (inactive)	17.5 µM (inactive)	4.22 µM (inactive)	25.5 µM (inactive)	17.4 µM (inactive)	–	–
CCOC(=O)C(/N=N\c1ccc(S(N)(=O)=O)cc1)C(C)=O (stereo not drawn)	> 100 µM (inactive)	> 100 µM (inactive)	> 100 µM (inactive)	> 100 µM (inactive)	> 100 µM (inactive)	> 100 µM (inactive)	> 100 µM (inactive)	> 100 µM (inactive)	> 100 µM (inactive)	> 100 µM (inactive)	> 100 µM (inactive)	> 100 µM (inactive)	> 100 µM (inactive)	> 100 µM (inactive)	> 100 µM (inactive)	> 100 µM (inactive)	> 100 µM (inactive)	> 100 µM (inactive)	–	–
OCC(O)CNc1ccnc2cc(Cl)ccc12 (stereo not drawn)	> 100 µM (inactive)	> 100 µM (inactive)	> 100 µM (inactive)	> 100 µM (inactive)	> 100 µM (inactive)	> 100 µM (inactive)	> 100 µM (inactive)	> 100 µM (inactive)	> 100 µM (inactive)	> 100 µM (inactive)	> 100 µM (inactive)	> 100 µM (inactive)	> 100 µM (inactive)	> 100 µM (inactive)	> 100 µM (inactive)	> 100 µM (inactive)	> 100 µM (inactive)	> 100 µM (inactive)	–	–
COc1cc(Nc2cnc3cc(N)ccc3n2)cc(OC)c1OC	64.4 µM (inactive)	> 100 µM (inactive)	> 100 µM (inactive)	> 100 µM (inactive)	> 100 µM (inactive)	57.5 µM (inactive)	> 100 µM (inactive)	65.5 µM (inactive)	> 100 µM (inactive)	98.6 µM (inactive)	97.7 µM (inactive)	> 100 µM (inactive)	44.1 µM (inactive)	72.4 µM (inactive)	> 100 µM (inactive)	> 100 µM (inactive)	> 100 µM (inactive)	69.7 µM (inactive)	–	–

Reference: ChEMBL document CHEMBL1201862, “PubChem BioAssay data set” (2004)
